The values that follow come from patent publication US20090088329A1, “MULTICOMPONENT PROTEIN MICROARRAYS” (priority 2002, published 2009).

Test [1] has as its target rhodamine-labelled calmodulin (CaM)/rhodamine-labelled melittin complex (Homo sapiens, UniProt P0DP23). Nature of the test: Calmodulin-melittin sol-gel microarray, rhodamine self-quenching fluorescence. The following applies: for effect on CaM-melittin complex / fluorescence intensity: addition to array, 20:1 molar ratio to CaM for guanidine hydrochloride. The class given is binding. From the text:
A third system involving protein-peptide interactions consisted of rhodamine-labelled calmodulin (CaM) and rhodamine-labelled mellitin, and was based on a slightly different fluorescence-based screening method utilizing these same biomolecules entrapped in sol-gel derived monoliths. In the absence of antagonists or denaturants (such as guanidine hydrochloride), these two species exist in a complex that brings the two rhodamine labels into close proximity, resulting in self-quenching and thus a low fluorescence signal.
Another example of a sol-gel derived microarray involving a protein-peptide interaction has been developed consisting of rhodamine-labelled calmodulin (CaM) and rhodamine-labelled melittin co-entrapped in a sodium silicate derived sol-gel. In the absence of antagonists, these two species exist in a complex that brings the two rhodamine labels into close proximity, resulting in a self-quenching dimer and thus a low fluorescence signal.
Columns 1 & 5 contain the protein-protein interaction between CaM and Mellitin. Both of which are labelled with rhodamine. Columns 2 & 4 are blank and contain only buffer. Column 3 contains CaM—Rhodamine alone and acts as a positive control. Upon addition of GdHCl (2M) to the top of the array and imaging every 20 s, the CaM-Mel columns increased in fluorescence over 2-fold (Panel B), while the positive control increased slightly initially but reached a relatively low steady-state value quickly (see graph, FIG. 7)

The next test addresses urease (Canavalia ensiformis, UniProt P07374). The following applies: cited from earlier work.
Test [2] deals with T1, Urease (type IX from Jack Beans) (Canavalia ensiformis, UniProt P07374).
T1 construct: purchased Sigma (St. Louis, Mo.) type IX
T1 sequence (P07374 whole entry, looked up): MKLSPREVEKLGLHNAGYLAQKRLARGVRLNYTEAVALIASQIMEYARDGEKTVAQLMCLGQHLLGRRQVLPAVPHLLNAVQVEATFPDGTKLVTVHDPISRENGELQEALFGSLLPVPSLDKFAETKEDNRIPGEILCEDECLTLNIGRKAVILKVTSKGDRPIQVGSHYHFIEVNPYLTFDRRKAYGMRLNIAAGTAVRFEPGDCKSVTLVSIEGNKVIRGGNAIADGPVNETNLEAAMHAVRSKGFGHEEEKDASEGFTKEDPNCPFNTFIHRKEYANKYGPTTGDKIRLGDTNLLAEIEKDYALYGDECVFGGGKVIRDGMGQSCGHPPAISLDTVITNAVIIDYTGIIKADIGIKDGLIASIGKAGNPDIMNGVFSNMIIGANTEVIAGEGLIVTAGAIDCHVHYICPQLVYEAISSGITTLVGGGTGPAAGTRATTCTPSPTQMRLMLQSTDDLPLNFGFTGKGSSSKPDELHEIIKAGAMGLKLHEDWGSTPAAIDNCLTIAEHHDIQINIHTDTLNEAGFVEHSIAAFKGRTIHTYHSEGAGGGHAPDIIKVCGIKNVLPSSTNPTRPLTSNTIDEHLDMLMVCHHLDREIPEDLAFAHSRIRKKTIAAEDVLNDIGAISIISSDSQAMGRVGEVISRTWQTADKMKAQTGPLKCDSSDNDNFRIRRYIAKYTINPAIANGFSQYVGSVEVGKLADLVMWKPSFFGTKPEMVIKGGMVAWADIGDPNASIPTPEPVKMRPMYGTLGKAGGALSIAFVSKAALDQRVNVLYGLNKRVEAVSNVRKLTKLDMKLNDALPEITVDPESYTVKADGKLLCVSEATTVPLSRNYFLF
As to the kind of experiment: biochemical. The class given is biochemical. The following applies: for Ki: 20 mM urea; for Km / kcat: Urease/FD; for kcat: pH 5.1. How it is done: Preparation of Spotting Solutions: GOx and HRP were dissolved at concentration of 0.4 mg.mL^−1 (250 units.mg^−1) and 0.01 mg.mL^−1 (1000 units.mg^−1), respectively, in 50 mM sodium phosphate buffer, pH 7.4 to form the protein stock solutions. The Amplex Red reagent was made up to a stock concentration of 10 mM. Urease and fluorescein dextran were dissolved at concentrations of 2 mg.mL^−1 (35,400 units.g^−1) and 25 μM, respectively, in 50 mM Tris buffer containing 50 mM NaCl, pH 8 to form their respective stock solutions. GOx/HRP assay samples were prepared to a total volume of 50 μL by mixing 3 μL of each of the GOx and HRP stock solutions, 39 μL of sodium phosphate buffer and 5 μL of the Amplex Red dye solution. Negative and blank control samples were prepared in the same way except that phosphate buffer replaced the missing reagent. Positive control samples contained GOx and HRP as well as 15 μL of 100 μM D-glucose (in buffer) and only 24 μL of buffer. […] Similarly, the blank and positive control samples replaced the missing reagents with Tris buffer while the enzyme selectivity control was obtained by replacing urease with AChE (0.01 mg.mL^−1) in Tris buffer.
Enzyme Assays All enzyme assays and inhibition studies were performed in 96 well plates using a TECAN Safire absorbance/fluorescence platereader operated in fluorescence mode, or on the microarray using time-dependent fluorescence intensity measurements. The enzymatic activity of free and entrapped GOx in 96 well plates was measured by adding 50 μL of a solution containing varying concentrations of glucose to the microtiter well and monitoring of the fluorescence emission at 590 nm for 20 minutes (in solution) or 45 minutes (for entrapped GOx) with excitation at 573 nm. For microarrays, 20 μL of a glucose solution was added to the top of the array, left for 20 seconds and then removed by gently blowing air over the surface, followed by monitoring of fluorescence emission over time. […] Images were acquired before the addition of glucose and then every 30 seconds for 30 minutes after the introduction of glucose using a 30 second integration time per image. For urease, activity and inhibition were measured by adding 100 μL of a solution containing a constant amount of urea (20 mM) in the presence of varying amounts of thiourea (0-100 mM) to the microtiter well and the fluorescence emission of the fluorescein dextran was monitored at 520 nm for 15 minutes (solution) or 45 minutes (entrapped). Microarrays containing urease and fluorescein dextran were first imaged after washing with distilled deionized water (ddH2O, pH 5.1) to provide a constant baseline intensity response. Following this, 20 μL of a urea/thiourea solution was added to the top of the array, which was then covered with a coverslip to minimize solvent evaporation. The emission intensity of fluorescein dextran was measured every 20 seconds for 10 minutes using a 10 second integration time per image following the addition of the urea solution to the array. All samples were tested within 24 hours of being prepared.
For both enzymes studied the initial rate of change in fluorescence intensity was converted to a change in product concentration with time using calibration curves relating the emission intensity of fluorescein to the concentration of ammonium carbonate (for urease) or hydrogen peroxide (for GOx). The Michaelis constants (KM) and catalytic rate constants (kcat) for the enzymes were calculated by generating either double reciprocal (Lineweaver-Burk) plots relating (initial rate of product formation)^−1 to (substrate concentration)^−1 or Hanes-Wolff plots, and fitting these to a linear model. Inhibition constants (KI) for urease were calculated by assessing the changes in the initial rate values for the enzyme in the presence of varying levels of inhibitor, according to the equation: […]

Where [3] appears, read: entrapped enzyme in platereader.

SMILES strings stand for the structures. Where a name gives a salt, the structure may show the parent alone.

Chain of urease (P07374 whole entry, looked up): as above

As for `N=C(N)c1ccccc1` [benzamidine], the “effect on CaM-melittin complex / fluorescence intensity” value in test [1] is “no changes in intensity above that obtained for CaM alone”.
Consider `N=C(N)N` [guanidine hydrochloride], for which the “increase in fluorescence of CaM-Mel columns” value in test [1] (GdHCl 2M added to top of array, imaging every 20 s) was “over 2 fold”. Moreover, the “effect on CaM-melittin complex / fluorescence intensity” value in test [1] is reported as “the complex was dissociated”.
On to `NC(N)=S` [thiourea], for which the Ki at urease (urease in solution, literature range, different pH values (5.5 to 8)) is 48 to 85 mM; in test [2] (urease entrapped in bulk sodium silicate glass, platereader) it was 54 ± 2 mM; in test [2] (urease sol-gel microarray), 62 ± 7 mM.
Turning to `NC(N)=O` [urea], the Km was 2.9 mM at urease (urease, literature); 2.35 ± 0.03 mM in test [2] (setting [3]); 1.9 ± 0.1 mM in test [2] (sol-gel microarray); 1.3 ± 0.2 mM in test [2] (solution, platereader). Also, the kcat was determined as 1.33 ± 0.02 s⁻¹ in test [2] (setting [3]); 1.1 ± 0.1 s⁻¹ in test [2] (sol-gel microarray); 78 ± 2 s⁻¹ in test [2] (solution, platereader). In test [2] (urease, entrapped vs solution), the “kcat of entrapped protein lower than in solution” value is given as “up to 70 fold”.

The term Ki denotes a measure of affinity in units of concentration, obtained from inhibition or displacement. What is called Km is the substrate concentration at which the rate is half of its maximum. By kcat is commonly meant the number of substrate molecules converted per active site and unit of time at saturation.
